Data from the supplement of paper PMC10307832.

Key:
Assay in all cases: relative viability (nuclei count vs DMSO), 5 days (fraction); higher = more cells survive
Palbociclib + Navitoclax = compound: CC(=O)c1c(C)c2cnc(Nc3ccc(N4CCNCC4)cn3)nc2n(C2CCCC2)c1=O [Palbociclib] + CC1(C)CCC(c2ccc(Cl)cc2)=C(CN2CCN(c3ccc(C(=O)NS(=O)(=O)c4ccc(N[C@H](CCN5CCOCC5)CSc5ccccc5)c(S(=O)(=O)C(F)(F)F)c4)cc3)CC2)C1 [Navitoclax] (partner 0.5 µM)
In short: (§1)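 Lung cancer cell lines in 1536-well plates got either a single drug or a fixed anchor-drug dose together with five library-drug doses (not always all listed) in √10 steps, by pin tool, on the day after seeding. Nuclei were counted after 5 days, and relative viability is the treated-to-vehicle ratio of nuclei counts. Values are medians of duplicate plates.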

Palbociclib + Alpelisib = compound: CC(=O)c1c(C)c2cnc(Nc3ccc(N4CCNCC4)cn3)nc2n(C2CCCC2)c1=O [Palbociclib] + Cc1nc(NC(=O)N2CCC[C@H]2C(N)=O)sc1-c1ccnc(C(C)(C)C(F)(F)F)c1 [Alpelisib] (partner 2 µM)
In short: as §1

Palbociclib + Luminespib = compound: CC(=O)c1c(C)c2cnc(Nc3ccc(N4CCNCC4)cn3)nc2n(C2CCCC2)c1=O [Palbociclib] + CCNC(=O)c1noc(-c2cc(C(C)C)c(O)cc2O)c1-c1ccc(CN2CCOCC2)cc1 [Luminespib] (partner 0.01 µM)
In short: as §1

Palbociclib + Lapatinib = compound: CC(=O)c1c(C)c2cnc(Nc3ccc(N4CCNCC4)cn3)nc2n(C2CCCC2)c1=O [Palbociclib] + CS(=O)(=O)CCNCc1ccc(-c2ccc3ncnc(Nc4ccc(OCc5cccc(F)c5)c(Cl)c4)c3c2)o1 [Lapatinib] (partner 2 µM)
In short: as §1

Cell Line	relative viability (Palbociclib + Navitoclax; first compound 0.01 µM)	relative viability (Palbociclib + Navitoclax; first compound 0.03162 µM)	relative viability (Palbociclib + Navitoclax; first compound 0.1 µM)	relative viability (Palbociclib + Navitoclax; first compound 0.3162 µM)	relative viability (Palbociclib + Navitoclax; first compound 1 µM)	relative viability (Palbociclib + Alpelisib; first compound 0.01 µM)	relative viability (Palbociclib + Alpelisib; first compound 0.03162 µM)	relative viability (Palbociclib + Alpelisib; first compound 0.1 µM)	relative viability (Palbociclib + Alpelisib; first compound 0.3162 µM)	relative viability (Palbociclib + Alpelisib; first compound 1 µM)	relative viability (Palbociclib + Luminespib; first compound 0.01 µM)	relative viability (Palbociclib + Luminespib; first compound 0.03162 µM)	relative viability (Palbociclib + Luminespib; first compound 0.1 µM)	relative viability (Palbociclib + Luminespib; first compound 0.3162 µM)	relative viability (Palbociclib + Luminespib; first compound 1 µM)	relative viability (Palbociclib + Lapatinib; first compound 0.01 µM)	relative viability (Palbociclib + Lapatinib; first compound 0.03162 µM)	relative viability (Palbociclib + Lapatinib; first compound 0.1 µM)	relative viability (Palbociclib + Lapatinib; first compound 0.3162 µM)	relative viability (Palbociclib + Lapatinib; first compound 1 µM)
BEN	0.0758	0.0563	0.0761	0.0645	0.0615	1.04	0.847	0.634	0.834	0.499	0.619	0.225	0.269	0.205	0.194	0.754	0.582	0.518	0.558	0.342
CAL-12T	1.23	1.01	0.896	0.848	0.767	1.11	1.05	0.84	0.652	0.603	0.367	0.318	0.463	0.277	0.206	0.759	–	–	0.367	0.334
COR-L23	0.977	0.759	0.681	0.544	0.477	0.671	0.535	0.516	0.37	0.311	0.647	0.515	0.511	0.429	0.434	1.02	0.864	0.777	0.667	0.418
COR-L 105	0.943	0.808	0.669	0.586	0.401	0.916	0.888	0.792	0.7	0.444	0.689	0.814	0.596	0.475	0.536	0.352	0.281	0.312	0.339	0.354
EKVX	1.11	0.826	0.755	0.764	0.476	1.04	0.716	0.661	0.604	0.401	0.856	0.745	0.919	0.841	0.605	0.184	0.193	0.193	0.178	0.12
EMC-BAC-2	1.16	1.07	1.06	0.953	0.731	0.738	0.646	0.602	0.665	0.508	1.19	1.15	0.952	0.979	0.848	0.908	0.515	0.793	0.689	0.597
EPLC-272H	1.21	–	1.06	1.06	0.833	1.13	–	0.808	0.69	0.658	0.225	–	0.346	0.518	0.379	1.14	–	0.71	0.603	0.718
H3255	0.632	0.512	0.406	0.567	0.338	0.714	0.599	0.469	0.488	0.36	0.925	0.91	0.65	0.587	0.464	0.263	0.246	0.2	0.231	0.211
HARA	1.15	1.11	0.997	0.91	0.662	0.82	0.718	0.557	0.405	0.31	0.65	–	0.447	0.514	0.28	0.715	0.473	0.397	0.363	0.225
HCC-15	0.672	–	0.622	0.641	0.529	0.878	–	0.793	0.719	0.704	0.267	–	0.378	0.502	0.418	0.934	–	0.75	0.796	0.642
HCC-44	0.948	0.953	1.03	0.99	1.02	0.728	0.789	0.819	0.798	0.774	0.933	1.01	1.02	1.35	1.11	0.886	0.939	0.978	0.979	1.02
HCC-827	1.03	1.01	0.99	0.953	0.769	1.04	0.927	0.913	0.819	0.652	0.398	0.539	0.582	0.609	0.532	0.217	0.19	0.161	0.202	0.182
HOP-62	0.959	0.68	0.893	0.86	0.625	0.851	–	0.797	0.831	0.648	0.905	0.844	0.91	0.716	0.675	0.77	–	0.871	0.825	0.79
LC-2-ad	0.555	–	0.402	0.383	0.337	0.876	–	0.701	0.641	0.463	0.944	–	0.856	0.8	0.535	0.947	–	0.736	0.705	0.491
LCLC-97TM1	0.401	–	0.27	0.294	0.281	0.291	–	0.189	0.209	0.189	0.666	0.702	0.684	0.486	0.281	0.891	–	0.894	0.697	0.304
LK-2	1.04	–	0.651	0.819	0.843	1.12	–	0.75	1.15	1.3	0.208	–	0.166	0.191	0.158	1.09	–	0.642	1.23	0.842
LOU-NH91	0.721	0.491	0.457	0.505	0.462	0.753	0.609	0.545	0.576	0.55	0.341	0.322	0.271	0.348	0.324	0.8	0.596	0.581	0.569	0.557
